Experimental findings from US11660293B2, “Substituted 2-azabicyclo[3.1.1]heptane and 2-azabicyclo[3.2.1]octane derivatives as orexin receptor antagonists” (Chronos Therapeutics Limited, priority 2017, dated 2023) are described below.

The target of assay [1] is human Orexin type 1 receptors (Homo sapiens (Human), UniProt O43613). Briefly: Scintillation Proximity Assay (SPA) binding assay, [3H]SB-674042 displacement, CHO-hOX1 membranes. The note with it: Table 2, [3H]SB-674042 2 nM. As for the experimental part:
Scintillation Proximity Assay (SPA) Binding Assays CHO cells stably transfected with human Orexin type 1 receptors (CHO-hOX1) or HEK-293 cells transiently transfected with human Orexin type 2 receptors (HEK-hOX2) were collected after 16 h induction with 5 mM sodium butyrate. […] The binding was performed in a final volume of 200 μl. 100 μl of hOX1 or hOX2 beads-membranes suspension were added to 100 μl of [^3H]SB-674042 or [^3H]EMPA solutions (radioligand concentration 2 nM final in the assay), into the 96-well Isoplates containing the 2 μl/well of compounds to be tested. Nonspecific binding was measured in the presence of 1 μM Almorexant. Assay plates were then incubated at room temperature for 3 h before being counted in a Microbeta scintillation counter (PerkinElmer). Data were analysed by non-linear regression analysis using XLfit Software.
(In a scintillation proximity assay essentially only radioactivity close to the scintillant gives light.)

For assay [2], the target named is human Orexin type 2 receptors (Homo sapiens (Human), UniProt O43614). Briefly: Scintillation Proximity Assay (SPA) binding assay, [3H]EMPA displacement, HEK-hOX2 membranes. As to conditions: Table 2, [3H]EMPA 2 nM. As for the experimental part: Scintillation Proximity Assay (SPA) Binding Assays
CHO cells stably transfected with human Orexin type 1 receptors (CHO-hOX1) or HEK-293 cells transiently transfected with human Orexin type 2 receptors (HEK-hOX2) were collected after 16 h induction with 5 mM sodium butyrate. The cell pellets were re-suspended, homogenized in 15 mM Tris/HCl pH=7.5, 1 mM EGTA, 0.3 mM EDTA, 2 mM MgCl2, protease inhibitors and centrifuged at 40,000 g (20 min, 4° C.). After re-suspension, homogenization and centrifugation as above, the final pellets were re-suspended in 75 mM Tris/HCl pH=7.5, 1 mM EGTA, 0.3 mM EDTA, 12.5 mM MgCl2, 250 mM Sucrose, protease inhibitors, divided into aliquots and frozen down at −80° C.
CHO-hOX1 cell membranes (6 μg ml^−1) or HEK-hOX2 membranes (8 μg ml^−1) were pre-coupled with 1.0 mg ml^−1 of Wheatgerm Agglutinin-coated Yttrium Silicate (YSi-WGA) SPA beads (Perkin Elmer) in buffer containing 25 mM HEPES pH=7.4, 1 mM CaCl2), 5 mM MgCl2, 0.01% (w/v) BSA, 0.02% (w/v) Pluronic F-127 by shaking at room temperature for 2.5-3 h.
The binding was performed in a final volume of 200 μl. 100 μl of hOX1 or hOX2 beads-membranes suspension were added to 100 μl of [^3H]SB-674042 or [^3H]EMPA solutions (radioligand concentration 2 nM final in the assay), into the 96-well Isoplates containing the 2 μl/well of compounds to be tested. Nonspecific binding was measured in the presence of 1 μM Almorexant. Assay plates were then incubated at room temperature for 3 h before being counted in a Microbeta scintillation counter (PerkinElmer).
Data were analysed by non-linear regression analysis using XLfit Software.

The structures appear in SMILES notation.

Sequence of human Orexin type 2 receptors (O43614 whole entry): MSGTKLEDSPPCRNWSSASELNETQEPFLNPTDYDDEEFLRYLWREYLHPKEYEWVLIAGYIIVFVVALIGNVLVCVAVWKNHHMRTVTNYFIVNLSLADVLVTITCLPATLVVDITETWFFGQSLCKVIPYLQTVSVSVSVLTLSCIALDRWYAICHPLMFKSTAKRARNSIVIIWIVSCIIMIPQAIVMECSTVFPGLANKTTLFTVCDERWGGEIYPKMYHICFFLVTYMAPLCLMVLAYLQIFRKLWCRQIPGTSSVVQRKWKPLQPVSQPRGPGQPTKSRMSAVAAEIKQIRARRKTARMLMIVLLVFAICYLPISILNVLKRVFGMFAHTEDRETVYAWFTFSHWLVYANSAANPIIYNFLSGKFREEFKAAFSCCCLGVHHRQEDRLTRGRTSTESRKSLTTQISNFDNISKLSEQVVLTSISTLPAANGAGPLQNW
Sequence of human Orexin type 1 receptors (O43613 whole entry): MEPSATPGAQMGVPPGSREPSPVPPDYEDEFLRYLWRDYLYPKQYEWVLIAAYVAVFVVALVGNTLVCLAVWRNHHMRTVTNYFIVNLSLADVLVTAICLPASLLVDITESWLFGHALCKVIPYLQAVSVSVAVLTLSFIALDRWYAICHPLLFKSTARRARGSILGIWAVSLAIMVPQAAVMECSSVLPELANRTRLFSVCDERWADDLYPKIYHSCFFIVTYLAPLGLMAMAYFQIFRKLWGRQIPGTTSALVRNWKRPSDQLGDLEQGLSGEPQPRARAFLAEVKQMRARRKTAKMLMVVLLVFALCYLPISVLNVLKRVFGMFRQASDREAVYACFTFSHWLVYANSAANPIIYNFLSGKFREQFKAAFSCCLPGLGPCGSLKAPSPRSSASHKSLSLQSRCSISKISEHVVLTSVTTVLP

Regarding `Cc1ccc(-c2ccccn2)c(C(=O)N2C3CC(C3)[C@@H](C)C2COc2ccc(F)cn2)n1` (mixture of isomers) [Example 131, cis-2′-(3-{[(-fluoropyridin-2-yl)oxy]methyl}-4-methyl-2-azabicyclo[3.1.1]heptane-2-carbonyl)-6′-methyl-2,3′-bipyridine], in assay [1], the “OX1 pKi (SPA binding)” value stood at 7.02. Further, the “OX2 pKi (SPA binding)” value in assay [2] amounted to 6.1.
On to `Cc1ccc(-c2ncc(C(F)(F)F)cn2)c(C(=O)N2C3CC(C3)[C@@H](C)C2COc2ccc(F)cc2)n1` (mixture of isomers) [Example 133, cis-3-[(4-fluorophenoxy)methyl]-4-methyl-2-{6-methyl-3-[5-(trifluoromethyl)pyrimidin-2-yl]pyridine-2-carbonyl}-2-azabicyclo[3.1.1]heptane], for which the “OX1 pKi (SPA binding)” value in assay [1] was determined as 7.25. Also, in assay [2], the “OX2 pKi (SPA binding)” value is 6.79.
On the same counts, the results for `Cc1ccc(-c2ncc(F)cn2)c(C(=O)N2C3CC(C3)[C@@H](C)C2COc2ccc(F)cc2)n1` (mixture of isomers) [Example 134, cis-3-[(4-fluorophenoxy)methyl]-2-[3-(5-fluropyrimidin-2-yl)-6-methylpyridine-2-carbonyl]-4-methyl-2-azabicyclo[3.1.1]heptane] are 7.85 and 7.03.
The like results for `Cc1cnn(-c2ccc(C)nc2C(=O)N2C3CC(C3)[C@@H](C)C2COc2ccc(F)cc2)c1` (mixture of isomers) [Example 135, cis-3-[(4-fluorophenoxy)methyl]-4-methyl-2-[6-methyl-3-(4-methyl-1H-pyrazol-1-yl)pyridine-2-carbonyl]-2-azabicyclo[3.1.1]heptane] were, in that order, 7.78 and 6.39.
Take `Cc1nc(C(=O)N2C3CC(C3)[C@@H](C)C2COc2ccc(F)cc2)c(-c2cnccn2)s1` (mixture of isomers) [Example 136, cis-3-[(4-fluorophenoxy)methyl]-4-methyl-2-[2-methyl-5-(pyrazin-2-yl)-1,3-thiazole-4-carbonyl]-2-azabicyclo[3.1.1]heptane]: the “OX1 pKi (SPA binding)” value in assay [1] turned out to be 7.26. The “OX2 pKi (SPA binding)” value in assay [2] is 5.92.
`Cc1cccc(-c2sc(C)nc2C(=O)N2C3CC(C3)[C@@H](C)C2COc2ccc(F)cc2)n1` (mixture of isomers) [Example 137, cis-3-[(4-fluorophenoxy)methyl]-4-methyl-2-[2-methyl-5-(6-methylpyridin-2-yl)-1,3-thiazole-4-carbonyl]-2-azabicyclo[3.1.1]heptane]: the “OX1 pKi (SPA binding)” value in assay [1] worked out at 7.97. Moreover, the “OX2 pKi (SPA binding)” value in assay [2] is recorded as 6.34.
On the same counts, the results for `Cc1cnc(-c2ccc(C)nc2C(=O)N2C3CC(C3)[C@@H](C)C2COc2ccc(F)cc2)nc1` (mixture of isomers) [Example 138, cis-3-[(4-fluorophenoxy)methyl]-4-methyl-2-[6-methyl-3-(5-methylpyrimidin-2-yl)pyridine-2-carbonyl]-2-azabicyclo[3.1.1]heptane] are 8.08 and 7.05.
`Cc1nc(C(=O)N2C3CC(C3)[C@@H](C)C2COc2ccc(F)cc2)c(-c2cncc(Cl)c2)s1` (mixture of isomers) [Example 139, cis-2-[5-(5-chloropyridin-3-yl)-2-methyl-1,3-thiazole-4-carbonyl]-3-[(4-fluorophenoxy)methyl]-4-methyl-2-azabicyclo[3.1.1]heptane]: in assay [1], the “OX1 pKi (SPA binding)” value amounted to 7.85. Also, in assay [2], the “OX2 pKi (SPA binding)” value stood at 6.18.
The like results for `Cc1nc(C(=O)N2C3CC(C3)[C@@H](C)C2COc2ccc(F)cc2)c(-n2cccn2)s1` (mixture of isomers) [Example 141, cis-3-[(4-fluorophenoxy)methyl]-4-methyl-2-[2-methyl-5-(1H-pyrazol-1-yl)-1,3-thiazole-4-carbonyl]-2-azabicyclo[3.1.1]heptane] were, in that order, 6.91 and 6.45.
